Data from patent publication US20210393932A1, “DERMAL PATCHES AND GLASS SWABS FOR APPLICATION OF TOPICAL IMMUNOSENSITIZERS” (Squarex, LLC, priority 2020, published 2021).
Values joined by “and” are separate entries in the source; they are usually repeats but may differ in a detail not shown here. Identical values can stand only once. “Also recorded” adds a separate entry of the source.

How the values were obtained:
[1] = Toxicity evaluation (body weight, food consumption, clinical observation, histopathology) in guinea pig; assay type: in vivo
Description: The purpose of this nonGLP study was to evaluate the effect of various concentrations of SADBE delivered via dermal patch, for dose site irritation and toxicity endpoints such as body weights, group food consumption, clinical observation, pre-termination clinical pathology, gross and histopathology.
Thirty (30) guinea pigs (15 female and 15 male) were utilized for this nonGLP study. Prior to and post dosing (dermal patches loaded with 20 microliters of 2, 6, or 18% SADBE drug solution) body weights, group food consumption, and Draize scoring for erythema, eschar formation, and edema at the dose site were be recorded. The dermal patch loaded with SADBE was applied to animals, and left in place for ˜12 hours plus/minus 1 hour. Following the ˜12 hour dosing period, patch sites was assessed by Draize scoring. […] After the 28 days assessment period, re challenge was performed, a second patch (not treated during the induction phase) was applied and assessed by Draize scoring.
At the end of the survival period, blood was collected for standard hematology and serum chemistry analysis, and the animals humanely euthanized. The second dose site and cervical lymph nodes were collected at necropsy for further histopathological evaluation. Dose site was explanted, fixed, and embedded. Dose sites were examined histologically and an evaluation of cell type presence and tissue response conducted.

mini pig skin = assay: Cutaneous irritation (Draize, Primary Irritation Index) after SADBE dermal patch in Gottingen mini-pig; assay type: in vivo, Gottingen miniswine; settings: for Primary Irritation Index (pII) / Primary Irritation Index (pII), transient peak: 0-8 scale; for Primary Irritation Index (pII), transient peak: after the second dose; for duration of moderate levels of irritation / time to return to non-irritating levels post-dermal-application: re-challenge; for duration of severe cutaneous irritation: re-challenge at naive site
Method: A total of 6 Gottingen miniswine (3 female and 3 male) was used in this nonGLP study. Prior to dosing, the baseline body weights, group food consumption, and Draize scoring (see tables 1 and 2) for erythema and eschar formation and edema at the future dose site were recorded. A dermal patch (1 patch/animal) loaded with 20 microliters of 2, 6, or 18% SADBE drug solution was applied to animals, and left in place for ˜12 hours. Following the ˜12 hour dosing period, patch sites was assessed by Draize scoring as in Example 5, 5×/week for 21 days. […] After the 25 day assessment period, the animals were re-challenged and a second dosing and assessment phase performed for 30 days. At the end of the survival period, animals were humanely euthanized and a complete necropsy was performed. The test article vials used to prepare patches and mini-pig exposed patches were collected after application to determine SADBE content and SADBE degradation product squaric acid monobutyl ester (SAMBE) using HPLC at Squarex's Laboratory.
Cutaneous irritation at the test site was observed and scored each day of the study by the Draize Scale for both Erythema & Eschar and Edema. The scale for each is in Tables 9 and 10 in Example 5, each on a 0-4 scale. The cumulative Erythema & Eschar and Edema score was the Primary Irritation Index score, which would therefore be on a 0-8 scale.
The daily primary irritation index (pII) for each test article dose over the course of the study was calculated (FIG. 5). The pII is used to categorize the test article treatments as negligible to not irritating (0-0.9), slight (0.9-1.9), moderate (2-4.9) or severe (5-8) irritation potential.

[2] = Residual SADBE and SAMBE in patches after 12 hours on mini-pigs; assay type: in vivo, Gottingen miniswine; settings: for SADBE as % of expected (remaining in patch): 12 hours on mini-pigs
Method: Patches were removed from the pigs at the indicated times and immediately the reservoir portion of the patch was cut out and placed in a 50 ml tube with 10 ml of DMSO. The tubes of DMSO with patches were transported to the Squarex laboratory, shaken at 200 rpm for 30 minutes to overnight, and then the DMSO from each tube was placed in an injection vial and analyzed for SADBE content by HPLC on a C18 column with the program SADBE3-50 ul. SADBE elutes in this program at about 24.0 minutes and absorbs at 255 nm, so the area of the 24.0 min peak at 255 nm was used to quantify SADBE. The SADBE degradation product squaric acid monobutyl ester (SAMBE) was also quantified by 255 nm area under the curve at the elution time of 12.7 minutes.

[3] = any dose tested (2%, 6%, 18% SADBE patch)
[4] = female, Group 1, 2% SADBE patch
[5] = female, Group 3, 18% SADBE patch

SMILES: CCCCOc1c(OCCCC)c(=O)c1=O [SADBE, squaric acid dibutyl ester]
- lymph node sections ([1]; all SADBE treated groups (summary)): within normal limits
- clinical monitoring observations ([1]; all doses): did not reveal any significant abnormalities
- histopathology observed at all SADBE treated sites (summary) ([1]; all doses): mild to moderate parakeratosis, minimal multifocal necrosis and fatty infiltration
- systemic toxicity ([1]; all doses, post-dosing and daily throughout study): no signs of systemic toxicity
- effect on body weight [1, 3]: no significant effect; also recorded: not affected
- effect on food consumption [1, 3]: no significant effect; also recorded: not affected
- histopathology of treated skin sites: inflammatory infiltrates in the dermis [1, 4]: multifocal rare to mild infiltrates of inflammatory cells
- histopathology of treated skin sites: necrosis, neovascularization, fibrosis, fatty infiltration [1, 4]: Necrosis, neovascularization, fibrosis and fatty infiltration were not noted
- histopathology of treated skin sites: inflammatory infiltrates in the dermis ([1]; female, Group 2, 6% SADBE patch): multifocal rare to mild infiltrates of inflammatory cells
- histopathology of treated skin sites: necrosis, neovascularization, fatty infiltration ([1]; female, Group 2, 6% SADBE patch, narrow fibrous band in three animals): Necrosis, neovascularization and fatty infiltration were not noted
- histopathology of treated skin sites: inflammatory infiltrates in the dermis [1, 5]: multifocal rare to mild infiltrates of inflammatory cells
- histopathology of treated skin sites: necrosis, neovascularization [1, 5]: Minimal multifocal necrosis and neovascularization was noted
- histopathology of treated skin sites: inflammatory infiltrates in the dermis ([1]; male, Group 1, 2% SADBE patch): multifocal rare infiltrates of inflammatory cells
- histopathology of treated skin sites: necrosis, neovascularization, fibrosis, fatty infiltration ([1]; male, Group 1, 2% SADBE patch): Necrosis, neovascularization, fibrosis and fatty infiltration were not noted
- histopathology of treated skin sites: inflammatory infiltrates in the dermis ([1]; male, Group 2, 6% SADBE patch): multifocal rare to mild infiltrates of inflammatory cells
- histopathology of treated skin sites: necrosis, neovascularization, fibrosis, fatty infiltration ([1]; male, Group 2, 6% SADBE patch): Necrosis, neovascularization, fibrosis and fatty infiltration were not noted
- histopathology of treated skin sites: inflammatory infiltrates in the dermis ([1]; male, Group 3, 18% SADBE patch): multifocal rare to heavy infiltrates of inflammatory cells
- histopathology of treated skin sites: necrosis, neovascularization ([1]; male, Group 3, 18% SADBE patch): Minimal, multofocal necrosis and mild multifocal neovascularization was noted
- irritation category by Primary Irritation Index (pII) (mini pig skin; 2% SADBE, 20 microliters patch, ~12 hours, first dose): moderately irritating
- Primary Irritation Index (pII) (mini pig skin; 2% SADBE, after the first dose): ~3.5
- Primary Irritation Index (pII), transient peak (mini pig skin; 2% SADBE): 5
- duration of moderate cutaneous irritation (mini pig skin; 2% SADBE, induction): > 15 days
- duration of moderate levels of irritation (mini pig skin; 2% SADBE): ~17 days
- time to return to non-irritating levels post-dermal-application (mini pig skin; 2% SADBE): ~22 days
- irritation category by Primary Irritation Index (pII) (mini pig skin; 2% SADBE, re-challenge (second dose)): moderately-severely irritating
- duration of severe cutaneous irritation (mini pig skin; 2% SADBE): 1 to 2 days
- irritation category by Primary Irritation Index (pII) (mini pig skin; 6% SADBE, 20 microliters patch, ~12 hours, first dose): moderately irritating
- Primary Irritation Index (pII) (mini pig skin; 6% SADBE, after the first dose): 3.0-4.0
- Primary Irritation Index (pII), transient peak (mini pig skin; 6% SADBE): 5.5
- duration of moderate cutaneous irritation (mini pig skin; 6% SADBE, induction): ~21 days
- duration of moderate levels of irritation (mini pig skin; 6% SADBE): ~19 days
- time to return to non-irritating levels post-dermal-application (mini pig skin; 6% SADBE): ~22 days
- irritation category by Primary Irritation Index (pII) (mini pig skin; 6% SADBE, re-challenge (second dose)): moderately-severely irritating
- duration of severe cutaneous irritation (mini pig skin; 6% SADBE): 1 days
- irritation category by Primary Irritation Index (pII) (mini pig skin; 18% SADBE, 20 microliters patch, ~12 hours, first dose): moderately-severely irritating
- Primary Irritation Index (pII) (mini pig skin; 18% SADBE, first dose): ~5.0
- duration of moderate-severe cutaneous irritation (mini pig skin; 18% SADBE, induction): ~22 days
- duration of moderate levels of irritation (mini pig skin; 18% SADBE): ~24 days
- time to return to non-irritating levels post-dermal-application (mini pig skin; 18% SADBE): ~26 days
- irritation category by Primary Irritation Index (pII) (mini pig skin; 18% SADBE, re-challenge (second dose)): severely irritating
- duration of severe cutaneous irritation (mini pig skin; 18% SADBE): ~5 days
- Primary Irritation Index (pII) (mini pig skin; 18% SADBE, second dose): ~6
- SADBE apparently transferred into the mini pig skin ([2]; 2% patches, 12 hours): about 89%
- SADBE as % of expected (remaining in patch) ([2]; 2% patches, individual animals): 7.0% and 14.6%
- SADBE as % of expected (remaining in patch) ([2]; 6% patches, average of 2 animals): 35% and 35.4%
- SADBE as % of expected (remaining in patch) ([2]; 6% patches, individual animals): 29.9% and 40.8%
- SADBE as % of expected (remaining in patch) ([2]; 18% patches, average of 2 animals): 65% and 65.5%
- SADBE as % of expected (remaining in patch) ([2]; 18% patches, individual animals): 65.2% and 65.8%
